# ChEMBL document CHEMBL5465560, “Selectivity Literature for EUbOPEN Chemogenomic Library” (2024)
# How the values were obtained:
# [1] = tested on: Phosphatidylinositol 4,5-bisphosphate 3-kinase catalytic subunit alpha isoform (Homo sapiens), P42336 [E545K]; details: at 10 µM
# [2] = target: T1, Discoidin domain-containing receptor 2 (Homo sapiens) (UniProt Q16832); experiment: Selectivity interaction (KinomeScan (DiscoverX)) EUB0000045b DDR2
# T1 sequence (whole entry): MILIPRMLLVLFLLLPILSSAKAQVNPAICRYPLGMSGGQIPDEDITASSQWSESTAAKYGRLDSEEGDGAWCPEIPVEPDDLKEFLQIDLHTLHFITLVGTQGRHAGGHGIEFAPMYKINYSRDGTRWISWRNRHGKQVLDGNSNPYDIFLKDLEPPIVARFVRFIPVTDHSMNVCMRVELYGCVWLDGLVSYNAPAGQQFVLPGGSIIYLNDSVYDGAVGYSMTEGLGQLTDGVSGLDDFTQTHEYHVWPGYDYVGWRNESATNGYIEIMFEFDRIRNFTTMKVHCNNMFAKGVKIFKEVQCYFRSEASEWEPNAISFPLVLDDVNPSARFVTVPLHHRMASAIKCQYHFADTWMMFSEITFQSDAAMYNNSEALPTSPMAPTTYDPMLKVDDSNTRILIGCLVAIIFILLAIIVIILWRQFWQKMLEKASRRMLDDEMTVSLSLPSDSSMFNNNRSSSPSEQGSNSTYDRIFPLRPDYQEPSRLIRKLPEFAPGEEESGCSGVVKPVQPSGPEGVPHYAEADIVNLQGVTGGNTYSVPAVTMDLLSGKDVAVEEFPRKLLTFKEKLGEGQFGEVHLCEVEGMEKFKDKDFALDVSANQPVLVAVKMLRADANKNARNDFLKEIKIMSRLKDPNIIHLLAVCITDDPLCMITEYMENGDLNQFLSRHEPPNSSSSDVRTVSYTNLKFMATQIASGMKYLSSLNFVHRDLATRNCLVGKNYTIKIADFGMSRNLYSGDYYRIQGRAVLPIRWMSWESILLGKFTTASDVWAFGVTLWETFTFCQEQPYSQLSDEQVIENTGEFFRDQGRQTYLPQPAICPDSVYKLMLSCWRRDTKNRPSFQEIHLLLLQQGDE
# [3] = target: Dual specificity protein kinase CLK4 (Homo sapiens, UniProt Q9HAZ1); experiment: Selectivity interaction (KinomeScan (DiscoverX)) EUB0000595a CLK4; details: at 10 µM
# Dual specificity protein kinase CLK4, sequence (Q9HAZ1 whole entry, looked up): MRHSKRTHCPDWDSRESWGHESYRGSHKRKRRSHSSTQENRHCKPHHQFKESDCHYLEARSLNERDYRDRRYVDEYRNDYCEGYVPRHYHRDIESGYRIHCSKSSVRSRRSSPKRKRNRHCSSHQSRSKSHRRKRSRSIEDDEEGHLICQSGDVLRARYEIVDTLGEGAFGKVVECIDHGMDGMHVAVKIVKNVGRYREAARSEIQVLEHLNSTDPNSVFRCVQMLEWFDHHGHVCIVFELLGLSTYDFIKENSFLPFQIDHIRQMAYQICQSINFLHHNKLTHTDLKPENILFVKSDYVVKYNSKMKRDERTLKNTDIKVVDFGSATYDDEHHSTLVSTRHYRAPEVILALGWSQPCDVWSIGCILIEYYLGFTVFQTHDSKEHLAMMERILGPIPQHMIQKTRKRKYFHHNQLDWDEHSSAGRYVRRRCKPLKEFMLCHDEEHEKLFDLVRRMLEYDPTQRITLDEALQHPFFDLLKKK
# [4] = target: T2, Calcium/calmodulin-dependent protein kinase type IV (Homo sapiens) (UniProt Q16566); details: at 10 µM
# T2 sequence (whole entry): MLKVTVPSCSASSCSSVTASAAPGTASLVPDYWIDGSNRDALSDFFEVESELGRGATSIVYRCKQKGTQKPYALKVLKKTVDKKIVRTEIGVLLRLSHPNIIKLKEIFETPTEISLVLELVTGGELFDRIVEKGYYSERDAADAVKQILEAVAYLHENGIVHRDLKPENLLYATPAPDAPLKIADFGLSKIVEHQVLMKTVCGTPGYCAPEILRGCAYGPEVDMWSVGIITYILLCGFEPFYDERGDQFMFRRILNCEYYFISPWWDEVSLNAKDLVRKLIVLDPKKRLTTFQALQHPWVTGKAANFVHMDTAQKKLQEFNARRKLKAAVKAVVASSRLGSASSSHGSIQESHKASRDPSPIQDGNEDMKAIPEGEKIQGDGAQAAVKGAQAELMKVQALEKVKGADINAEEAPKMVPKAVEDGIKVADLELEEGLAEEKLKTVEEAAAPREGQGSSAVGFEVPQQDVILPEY
# [5] = tested on: Tyrosine-protein kinase ABL1 (Homo sapiens), P00519 [Y253F]; experiment: (§1) Selectivity interaction (Kinase panel (Z-LYTE Assay)) EUB0001632a ABL1; details: at 10 µM
# [6] = target: Tyrosine-protein kinase ABL1 (Homo sapiens, UniProt P00519); experiment: as §1; details: at 10 µM
# [7] = tested on: Tyrosine-protein kinase ABL1 (Homo sapiens), P00519 [E255K]; experiment: as §1; details: at 10 µM
# [8] = tested on: Tyrosine-protein kinase ABL1 (Homo sapiens), P00519 [F317I]; experiment: as §1; details: at 10 µM
# [9] = tested on: Tyrosine-protein kinase ABL1 (Homo sapiens), P00519 [T315I]; experiment: as §1; details: at 10 µM
# [10] = tested on: Tyrosine-protein kinase ABL1 (Homo sapiens), P00519 [G250E]; experiment: as §1; details: at 10 µM
# [11] = target: T3, Serine/threonine-protein kinase D2 (Homo sapiens) (UniProt Q9BZL6); experiment: Selectivity interaction (Kinase screening (Nanosyn)) EUB0000604a PRKD2
# T3 sequence (whole entry): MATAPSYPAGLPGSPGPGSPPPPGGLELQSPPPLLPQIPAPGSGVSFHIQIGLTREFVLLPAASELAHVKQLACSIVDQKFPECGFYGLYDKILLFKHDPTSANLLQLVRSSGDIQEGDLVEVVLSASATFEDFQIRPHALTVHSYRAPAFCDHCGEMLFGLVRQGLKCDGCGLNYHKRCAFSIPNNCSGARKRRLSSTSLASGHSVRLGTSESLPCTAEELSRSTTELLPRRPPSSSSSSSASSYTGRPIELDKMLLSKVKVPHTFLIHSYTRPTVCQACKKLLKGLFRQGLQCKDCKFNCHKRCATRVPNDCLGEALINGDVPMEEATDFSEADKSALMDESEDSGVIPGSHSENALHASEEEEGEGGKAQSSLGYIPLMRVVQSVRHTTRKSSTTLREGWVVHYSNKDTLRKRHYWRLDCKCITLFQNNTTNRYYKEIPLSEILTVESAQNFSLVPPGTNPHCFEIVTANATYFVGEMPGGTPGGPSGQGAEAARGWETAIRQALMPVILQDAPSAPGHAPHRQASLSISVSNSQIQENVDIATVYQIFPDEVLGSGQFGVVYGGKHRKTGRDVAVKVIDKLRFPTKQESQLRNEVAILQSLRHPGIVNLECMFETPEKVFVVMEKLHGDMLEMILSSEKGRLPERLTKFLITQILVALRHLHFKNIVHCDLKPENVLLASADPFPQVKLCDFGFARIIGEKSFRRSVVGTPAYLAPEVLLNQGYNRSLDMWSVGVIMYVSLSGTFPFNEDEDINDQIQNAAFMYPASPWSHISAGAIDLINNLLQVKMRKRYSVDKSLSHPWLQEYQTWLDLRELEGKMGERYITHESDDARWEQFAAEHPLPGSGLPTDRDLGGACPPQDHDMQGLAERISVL
# Phosphatidylinositol 4,5-bisphosphate 3-kinase catalytic subunit alpha isoform (Homo sapiens), P42336 [E545K], sequence (P42336 whole entry E545K, the tested form may be a part, canonical isoform): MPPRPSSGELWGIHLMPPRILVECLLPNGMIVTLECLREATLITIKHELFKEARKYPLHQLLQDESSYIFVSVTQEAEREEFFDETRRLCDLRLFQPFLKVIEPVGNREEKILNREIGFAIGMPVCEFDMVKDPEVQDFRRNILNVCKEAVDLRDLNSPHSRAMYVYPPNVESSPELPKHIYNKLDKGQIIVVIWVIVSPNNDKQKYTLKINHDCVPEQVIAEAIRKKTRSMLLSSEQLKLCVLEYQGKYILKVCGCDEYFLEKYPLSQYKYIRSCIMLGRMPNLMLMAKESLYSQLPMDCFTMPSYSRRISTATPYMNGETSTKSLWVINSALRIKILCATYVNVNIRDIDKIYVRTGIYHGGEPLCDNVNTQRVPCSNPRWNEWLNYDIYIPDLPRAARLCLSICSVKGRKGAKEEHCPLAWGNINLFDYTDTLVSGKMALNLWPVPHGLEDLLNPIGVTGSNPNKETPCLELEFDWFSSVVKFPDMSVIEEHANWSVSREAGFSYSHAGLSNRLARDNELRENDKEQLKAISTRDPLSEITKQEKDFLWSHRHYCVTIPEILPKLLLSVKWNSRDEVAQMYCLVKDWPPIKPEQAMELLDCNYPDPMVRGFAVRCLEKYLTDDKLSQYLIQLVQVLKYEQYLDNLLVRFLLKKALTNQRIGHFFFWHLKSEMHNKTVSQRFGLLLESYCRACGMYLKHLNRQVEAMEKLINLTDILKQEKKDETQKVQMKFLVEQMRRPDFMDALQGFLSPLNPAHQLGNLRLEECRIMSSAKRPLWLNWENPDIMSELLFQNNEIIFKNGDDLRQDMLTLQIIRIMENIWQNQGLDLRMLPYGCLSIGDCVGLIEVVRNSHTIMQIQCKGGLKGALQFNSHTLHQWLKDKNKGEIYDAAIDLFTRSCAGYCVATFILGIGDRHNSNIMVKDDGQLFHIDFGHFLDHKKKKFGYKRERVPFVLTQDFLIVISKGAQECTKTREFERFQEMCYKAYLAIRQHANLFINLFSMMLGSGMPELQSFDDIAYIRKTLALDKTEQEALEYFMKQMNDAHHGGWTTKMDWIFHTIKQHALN
smiles,measurement,setting,value
CNC(=O)Nc1ccc(-c2nc(N3CC4CCC(C3)O4)c3cnn(C4CCC5(CC4)OCCO5)c3n2)cc1,% of control,[1],11%
C=CC(=O)Nc1cc(-n2c(=O)ccc3cnc4ccc(-c5ccc(NS(C)(=O)=O)cc5)cc4c32)ccc1C,% of control,[2]; at 1 µM,100%
same,% of control,[2]; at 10 µM,100%
COCC(=O)NC/C=C/c1ccc2ncnc(Nc3ccc(Oc4ccc(C)nc4)c(C)c3)c2c1 [CP-724714],% of control,[3],100%
same,% of control,[4],86%
Cn1cc(-n2cnc3c(NCc4nc5cc(Cl)c(Cl)cc5[nH]4)nc(N4CCOCC4)nc32)cn1,% of control,[5],2.36%
same,% of control,[6],-6.52%
same,% of control,[7],-3.74%
same,% of control,[8],1.78%
same,% of control,[9],-2.31%
same,% of control,[10],2.49%
Cc1cnc(Nc2ccc(F)cc2Cl)nc1-c1c[nH]c(C(=O)N[C@H](CO)c2cccc(Cl)c2)c1,% of inhibition,[11],50%
